Active and inactive are the calls of the source. No cut-off for these calls is given here.

The values that follow come from ChEMBL document CHEMBL1138471, “Synthesis and inotropic evaluation of 1-substituted-N-(4,5-dihydro-1-methyl-[1,2,4]triazolo[4,3-a]quinolin-7-yl)piperidine-4-carboxamides” (2009).

The species named for assay [1] is Oryctolagus cuniculus. Kind of assay: (§1) Positive inotropic activity in New Zealand White rabbit beating left atrium assessed as increase in stroke volume at 100 umol/L after 36 mins. It is filed as functional. The following applies: Cardiac atrium.
Assay [2] is filed under the species Oryctolagus cuniculus. Kind of assay: Negative inotropic activity in New Zealand White rabbit beating left atrium assessed as decrease in stroke volume at 100 umol/L after incubation for longer period. Format: functional, tissue-based. Particulars: Cardiac atrium.
Assay [3] in a line: as §1. It is filed as functional, Oryctolagus cuniculus, Cardiac atrium.
The species named for assay [4] is Oryctolagus cuniculus. In words: Positive inotropic activity in New Zealand White rabbit beating left atrium assessed as increase in stroke volume at 300 umol/L after 36 mins. Format: functional, tissue-based. Particulars: Cardiac atrium.
The species entered for assay [5] is Oryctolagus cuniculus. Kind of assay: Positive inotropic activity in New Zealand White rabbit beating left atrium assessed as increase in stroke volume after 36 mins. Format: functional, tissue-based. Particulars: Cardiac atrium.

With `Cc1nnc2n1-c1ccc(NC(=O)C3CCN(Cc4c(Cl)cccc4Cl)CC3)cc1CC2`, the result in assay [1] was inactive.
For the molecule `Cc1nnc2n1-c1ccc(NC(=O)C3CCN(Cc4ccc(F)cc4)CC3)cc1CC2`, the result in assay [1] was inactive.
As for `Cc1nnc2n1-c1ccc(NC(=O)C3CCN(Cc4ccc(Cl)cc4Cl)CC3)cc1CC2`, in assay [2], the outcome was Active. In addition, the Activity in assay [3] amounted to 7.83%.
`COc1cc(CN2CCC(C(=O)Nc3ccc4c(c3)CCc3nnc(C)n3-4)CC2)ccc1OCc1ccccc1[N+](=O)[O-]`: the outcome in assay [1] was inactive.
On to `Cc1nnc2n1-c1ccc(NC(=O)C3CCN(Cc4ccccc4Br)CC3)cc1CC2`, for which, in assay [3], the Activity amounted to 1.67%.
Regarding `COc1cc(CN2CCC(C(=O)Nc3ccc4c(c3)CCc3nnc(C)n3-4)CC2)ccc1OCc1ccc(F)cc1`, the outcome in assay [1] was inactive.
`COc1ccc(CN2CCC(C(=O)Nc3ccc4c(c3)CCc3nnc(C)n3-4)CC2)cc1`: the outcome in assay [1] was inactive.
`COc1ccc(CN2CCC(C(=O)Nc3ccc4c(c3)CCc3nnc(C)n3-4)CC2)cc1OC`: in assay [3], the Activity was determined as 1.87%.
Consider `COc1cc(CN2CCC(C(=O)Nc3ccc4c(c3)CCc3nnc(C)n3-4)CC2)ccc1OCc1cccc(Cl)c1`, for which the outcome in assay [2] was Active. Moreover, in assay [3], the Activity is 5.56%.
On to `Cc1nnc2n1-c1ccc(NC(=O)C3CCN(Cc4cccc(Cl)c4)CC3)cc1CC2`, for which the Activity in assay [3] is 9.97%.
As to `Cc1[nH]c(=O)c(C#N)cc1-c1ccncc1` [MILRINONE], the Activity in assay [3] was determined as 6.36%.
For the molecule `Cc1nnc2n1-c1ccc(NC(=O)C3CCN(Cc4cccc([N+](=O)[O-])c4)CC3)cc1CC2`, the Activity in assay [3] is recorded as 8.14%.
In the case of `COc1ccc(COc2ccc(CN3CCC(C(=O)Nc4ccc5c(c4)CCc4nnc(C)n4-5)CC3)cc2OC)cc1`, the outcome in assay [2] was Active. In assay [3], the Activity came to 6.08%.
Regarding `Cc1nnc2n1-c1ccc(NC(=O)C3CCN(Cc4ccccc4[N+](=O)[O-])CC3)cc1CC2`, the result in assay [1] was inactive.
Regarding `Cc1ccc(CN2CCC(C(=O)Nc3ccc4c(c3)CCc3nnc(C)n3-4)CC2)cc1`, the result in assay [1] was inactive.
In the case of `Cc1nnc2n1-c1ccc(NC(=O)C3CCN(Cc4ccccc4F)CC3)cc1CC2`, the outcome in assay [4] was inactive. Further, the Activity in assay [3] was 11.92%; in assay [5], “Dose-dependent effect”.
Regarding `COc1cc(CN2CCC(C(=O)Nc3ccc4c(c3)CCc3nnc(C)n3-4)CC2)ccc1OCc1ccccc1`, the Activity in assay [3] was found to be 5.19%.
For the molecule `COc1cc(CN2CCC(C(=O)Nc3ccc4c(c3)CCc3nnc(C)n3-4)CC2)ccc1OCc1ccccc1Br`, in assay [1], the result was inactive.
On the same count and under the same terms, as for `Cc1nnc2n1-c1ccc(NC(=O)C3CCN(Cc4ccc(Cl)cc4)CC3)cc1CC2`, the entry is “inactive”.
For `COc1cc(CN2CCC(C(=O)Nc3ccc4c(c3)CCc3nnc(C)n3-4)CC2)ccc1OCc1ccc(Cl)cc1`, the outcome in assay [2] was Active. In assay [3], the Activity was 5.13%.
As for `Cc1nnc2n1-c1ccc(NC(=O)C3CCN(Cc4ccccc4)CC3)cc1CC2`, the result in assay [1] was inactive.
Turning to `Cc1nnc2n1-c1ccc(NC(=O)C3CCN(Cc4cccc(F)c4)CC3)cc1CC2`, the Activity in assay [3] was 1.56%.
`Cc1nnc2n1-c1ccc(NC(=O)C3CCN(Cc4ccccc4Cl)CC3)cc1CC2`: the result in assay [2] was Active. In assay [3], the Activity is listed as 0.4%.
In the case of `COc1cc(CN2CCC(C(=O)Nc3ccc4c(c3)CCc3nnc(C)n3-4)CC2)ccc1OCc1ccccc1Cl`, the result in assay [1] was inactive.
In the case of `COc1cc(CN2CCC(C(=O)Nc3ccc4c(c3)CCc3nnc(C)n3-4)CC2)ccc1OCc1ccccc1F`, in assay [4], the outcome was inactive. Further, the Activity in assay [3] is 7.41%; in assay [5], “Dose-dependent effect”.
As for `Cc1nnc2n1-c1ccc(NC(=O)C3CCN(Cc4ccc5c(c4)OCO5)CC3)cc1CC2`, in assay [3], the Activity was determined as 2.96%.
Regarding `COc1ccc(COc2ccc(CN3CCC(C(=O)Nc4ccc5c(c4)CCc4nnc(C)n4-5)CC3)cc2OC)cc1OC`, the outcome in assay [1] was inactive.
As to `COc1cc(CN2CCC(C(=O)Nc3ccc4c(c3)CCc3nnc(C)n3-4)CC2)ccc1OCc1c(Cl)cccc1Cl`, the result in assay [1] was inactive.
As for `COc1cc(CN2CCC(C(=O)Nc3ccc4c(c3)CCc3nnc(C)n3-4)CC2)ccc1OCc1ccc(Cl)cc1Cl`, the Activity in assay [3] was determined as 2.78%.
Take `COc1cc(CN2CCC(C(=O)Nc3ccc4c(c3)CCc3nnc(C)n3-4)CC2)ccc1OCc1cccc([N+](=O)[O-])c1`: in assay [1], the result was inactive.
`COc1cc(CN2CCC(C(=O)Nc3ccc4c(c3)CCc3nnc(C)n3-4)CC2)ccc1OCc1cccc(F)c1`: the Activity in assay [3] amounted to 0.18%.
In the case of `COc1cc(CN2CCC(C(=O)Nc3ccc4c(c3)CCc3nnc(C)n3-4)CC2)ccc1OCc1ccc(C)cc1`, in assay [1], the result was inactive.
